Numbers after ± are expanded uncertainties.
Settings: Fluid (supercritical or subcritical phases), Vibrating tube method

O=C=O [carbon dioxide]
mass density [kg/m3]
Settings	313.15 K	333.15 K	353.15 K	373.15 K	393.15 K
340 kPa	8.2 ± 1.4	7.7 ± 1.4	7.4 ± 1.4	6.5 ± 1.4	5.7 ± 1.4
690 kPa	15.1 ± 1.4	13.4 ± 1.4	13.5 ± 1.4	10.9 ± 1.4	9.5 ± 1.4
1030 kPa	21.4 ± 1.4	19.9 ± 1.4	18.8 ± 1.4	17.1 ± 1.4	16.3 ± 1.4
1380 kPa	26.7 ± 1.4	25.1 ± 1.4	24.6 ± 1.4	23.2 ± 1.4	22.1 ± 1.4
1720 kPa	34.2 ± 1.4	31.9 ± 1.4	31.4 ± 1.4	28.6 ± 1.4	26.9 ± 1.4
2070 kPa	38.6 ± 1.4	38.4 ± 1.4	36.1 ± 1.4	32.7 ± 1.4	32 ± 1.4
2410 kPa	48.4 ± 1.4	44.1 ± 1.4	41.9 ± 1.4	39.2 ± 1.4	37 ± 1.4
2760 kPa	56.7 ± 1.4	51.2 ± 1.4	48 ± 1.4	44.8 ± 1.4	–
3100 kPa	64.1 ± 1.4	59.1 ± 1.4	54.1 ± 1.4	50.3 ± 1.4	47.4 ± 1.4
3450 kPa	72.9 ± 1.4	65.1 ± 1.4	61.4 ± 1.4	56.1 ± 1.4	52.9 ± 1.4
3800 kPa	80.9 ± 1.4	73.1 ± 1.4	67.2 ± 1.4	63.2 ± 1.4	58.2 ± 1.4
4140 kPa	87.5 ± 1.4	79.7 ± 1.4	73.8 ± 1.4	67.9 ± 1.4	63.6 ± 1.4
4480 kPa	99.4 ± 1.4	87.9 ± 1.4	80.5 ± 1.4	73.1 ± 1.4	69.2 ± 1.4
4830 kPa	109.8 ± 1.4	96.5 ± 1.4	88 ± 1.4	80 ± 1.4	74.7 ± 1.4
5170 kPa	122 ± 1.4	105.1 ± 1.4	94.9 ± 1.4	86.2 ± 1.4	80.4 ± 1.4
5510 kPa	134 ± 1.4	114.2 ± 1.4	102.4 ± 1.4	93 ± 1.4	86.2 ± 1.4
5860 kPa	145.4 ± 1.4	123.8 ± 1.4	110.2 ± 1.4	99.2 ± 1.4	92.4 ± 1.4
6200 kPa	158 ± 1.5	133.4 ± 1.4	118 ± 1.4	106 ± 1.4	98.1 ± 1.4
6550 kPa	175.1 ± 1.5	144.2 ± 1.4	126.2 ± 1.4	112.9 ± 1.4	104.7 ± 1.4
6890 kPa	194.5 ± 1.5	154.3 ± 1.5	134.4 ± 1.4	120 ± 1.4	110.5 ± 1.4
7240 kPa	218.9 ± 1.6	166.4 ± 1.5	143.4 ± 1.4	127 ± 1.4	113.6 ± 1.4
7580 kPa	239.9 ± 1.7	178.8 ± 1.5	152.1 ± 1.4	135.4 ± 1.4	123.1 ± 1.4
7930 kPa	272.8 ± 1.9	190.1 ± 1.5	161.4 ± 1.4	143.1 ± 1.4	129.9 ± 1.4
8270 kPa	315.6 ± 2.3	205.2 ± 1.6	171.1 ± 1.5	151.1 ± 1.4	136.2 ± 1.4
8620 kPa	383.1 ± 3	219.5 ± 1.8	180.8 ± 1.5	158.1 ± 1.4	142.9 ± 1.4
8960 kPa	478.5 ± 3.5	235.1 ± 2.1	191.1 ± 1.5	166.1 ± 1.4	149.4 ± 1.4
9310 kPa	554.1 ± 3.6	252.4 ± 2.3	201.8 ± 1.5	174.4 ± 1.4	156.2 ± 1.4
9650 kPa	599.1 ± 3.7	271 ± 2.5	211.9 ± 1.5	182.7 ± 1.5	163.2 ± 1.4
10000 kPa	630 ± 3.7	291.4 ± 2.6	223.5 ± 1.5	191.9 ± 1.5	170.4 ± 1.4
10340 kPa	649.1 ± 3.7	313.6 ± 2.6	235 ± 1.6	199.4 ± 1.5	176.4 ± 1.4
10690 kPa	667.8 ± 3.6	337 ± 2.7	247.4 ± 1.6	208.4 ± 1.5	183.2 ± 1.5
11030 kPa	682.9 ± 3.5	361.9 ± 2.7	259.8 ± 1.6	217.3 ± 1.5	191.1 ± 1.5
11380 kPa	696.2 ± 3.4	388 ± 2.7	272.4 ± 1.7	223.2 ± 1.5	198.2 ± 1.5
11720 kPa	708 ± 3.3	411.1 ± 2.7	283.9 ± 1.7	233.1 ± 1.5	203.9 ± 1.5
12070 kPa	718.3 ± 3.2	437.9 ± 2.7	298.3 ± 1.8	242.8 ± 1.5	210.8 ± 1.5
12410 kPa	727.4 ± 3	463.8 ± 2.7	312.1 ± 1.9	252.7 ± 1.5	218 ± 1.5
12750 kPa	737.3 ± 2.9	489.2 ± 2.7	328.4 ± 1.9	262.8 ± 1.6	226.3 ± 1.5
13100 kPa	744.1 ± 2.8	510.1 ± 2.6	342 ± 1.9	272.5 ± 1.6	234 ± 1.5
13440 kPa	751 ± 3	530.7 ± 2.6	356.7 ± 2	283.1 ± 1.6	242.1 ± 1.5
13790 kPa	757.9 ± 2.5	549.9 ± 2.5	372.8 ± 2	293.1 ± 1.6	250.9 ± 1.5
14130 kPa	765.3 ± 2.4	567.7 ± 2.5	388.6 ± 2	304.7 ± 1.6	258 ± 1.5
14480 kPa	770 ± 2.4	582 ± 2.4	403 ± 2.1	314.9 ± 1.6	266.4 ± 1.5
14820 kPa	775.9 ± 2.3	596 ± 2.4	417.8 ± 2.1	325 ± 1.7	275 ± 1.6
15160 kPa	781.5 ± 2.2	609.4 ± 2.3	433 ± 2.1	336.1 ± 1.7	283.9 ± 1.6
15510 kPa	786.4 ± 2.2	621 ± 2.3	447.5 ± 2.1	347.6 ± 1.7	291.1 ± 1.6
15860 kPa	791.7 ± 2.2	627.4 ± 2.3	461 ± 2.1	358.1 ± 1.7	300.7 ± 1.6
16200 kPa	796.1 ± 2.1	642.1 ± 2.2	475 ± 2.1	368.7 ± 1.7	308.4 ± 1.6
16550 kPa	801.2 ± 2.1	651.8 ± 2.2	488.1 ± 2.1	379.8 ± 1.8	316.8 ± 1.6
16900 kPa	805.8 ± 2	661.7 ± 2.1	501 ± 2.1	390.2 ± 1.8	325.1 ± 1.6
17240 kPa	809.8 ± 2	669.7 ± 2.1	513 ± 2.4	400.4 ± 2.1	333.1 ± 1.6

— the NIST ThermoML archive (doi:10.1021/je301283e)
